In patent US20180037909A1, “MODIFIED CANCER CELL LINES AND USES THEREOF” (Chang Gung Memorial Hospital, Linkou, priority 2016, published 2018):
One block for each compound: values may come before it.

How the values were obtained:
MCF7 breast cancer cells = experiment: Cell growth monitored by xCELLigence System; format: cell-based; details: FIG. 9
Protocol: An in vitro evaluation of the effect of ST3Gal1 siRNA (to knock down ST3Gal1 expression) and anti-cancer agent was performed using breast cancer cells.
MCF7 breast cancer cells were treated with one of the regimes in Table 2 and cell growth was monistored by xCELLigence System (ACEA Biosciences, Inc., USA)

[1] = molecular target: CD55 from MDA-MB-231 breast cancer cells transfected with ST3Gal1 siRNA (UniProt P08174); experiment: CD55 signal in PNA precipitate of lysate, ST3Gal1 siRNA cells against scramble siRNA cells
MDA-MB-231 cells = experiment: ADCC assay with human PBMC effectors and anti-SSEA4 antibody; format: cell-based; details: anti-SSEA4 antibody, Effector:Target ratio 10:1
Protocol: (§1) MDA-MB-231 breast cancer cells were transfected with scramble RNA (sc) or ST3Gal1 siRNA (si) according to Example 1. After four days, cells were collected and analyzed for the expression of membrane complement regulatory proteins (mCRPs) and target antigen by fluorescence-activated cell sorting (FACS). There was no change in the expression levels of mCRPs (CD46, CD55, and CD59) and target antigens (HLA and SSEA4) with ST3Gal1 silencing.
ADCC assay was performed using human PBMC cells as effectors, anti-SSEA4 as antibody, and ST3Gal1siRNA transfected MDA-MB-231 cells as targets. […] The mean percentages of lysis are 24.2±1.7% and 41.5±2.4% for sc and si, respectively at Effector:Target ratio of 10:1 ratio (E/T10), and the difference is statistically significant.

[2] = system: Prostate cancer cells (PC3); experiment: AlamarBlue cell proliferation assay; format: cell-based; details: fluorescence 590 nm, FIG. 7A
Protocol: (§2) Prostate cancer cells (PC3, Bioresource Collection and Research Center, Taiwan) and neuroblastoma cells (SH-SY5Y, obtained from Professor Yi-Cheng Chen, Mackay Medical College, Taiwan) were transfected with a scramble RNA (sc) or ST3Gal1 siRNA (si) according to Example 1. The cell proliferation was determined by AlamarBlue assay using Victor X3 plate reader to measure the fluorescence (590 nm) that was used to present the level of cell proliferation.

[3] = system: neuroblastoma cells (SH-SY5Y); experiment: AlamarBlue cell proliferation assay; format: cell-based; details: fluorescence 590 nm, FIG. 7B
Protocol: as §2

ST3Gal1 mRNA = ST3Gal1 mRNA expression by qPCR, normalized to GAPDH mRNA; format: cell-based; details: MDA-MB-231 breast cancer cells; for expression of ST3Gal1 RNA compared to sc RNA, siRNA-A or pVoid transfected cells: FIG. 8A-8C
Protocol: MDA-MB-231 breast cancer cells (available from Bioresource Collection and Research Center, Taiwan) were transfected with scramble siRNA (sc) or ST3Gal1 (si) siRNA with an antisense strand (SEQ ID NO:2) and a sense strand (SEQ ID NO:3). The expression levels of the ST3Gal1 mRNA were analyzed by qPCR analysis and normalized to GAPDH mRNA levels.
MDA-MB-231 breast cancer cells were transfected with scramble siRNA (sc), a vector without shRNA (pVoid), shRNA1-3 (SEQ ID NO:11), shRNA 1-4 (SEQ ID NO:12), or the siRNA listed in Table 1 below:
The expression levels of the ST3Gal1 mRNA were analyzed by qPCR analysis and normalized to GAPDH mRNA levels.

CD55 [4] = experiment: LC-MS/MS analysis of released, permethylated O-glycans of CD55; details: ST3Gal1 silenced vs sc transfected breast cancer cells
Text: The bi- and tri-antennary structures were all detected as glycoforms of the expected tryptic peptide […], previously reported as the single N-linked glycosylation site. […] The sialylation of core 1 and core 2 O-glycan on CD55 regulates the activity of CD55.
Impairment of 2-3-sialylation of the O-glycans of the CD55 molecule increases non-sialylated core 1 and monosialylated core 2, at the expenses of disialylated core 2 structure. On the other hand, the relative amount of the monosialylated core 1 O-glycan of the CD55 molecule (m/z 895.462) was similar in ST3Gal1 silenced and sc transfected breast cancer cells, probably due to compensation of 2-6-sialylation.

CD46 and CD59 = experiment: Western blot of CDC regulatory proteins; format: cell-based; details: breast cancer cells; FIG. 2B
Text: In addition, the expression levels of CD46 or CD59 were unaffected in breast cancer cells transfected with ST3Gal1 siRNA.

CD55 [5] = experiment: PNA lectin blot / PNA precipitation of cell lysates with mass spectrometry and CD55 blot; format: cell-based; details: breast cancer cells
Protocol: To examine the protein target of ST3Gal1 in breast cancer cells, total cell lysates from scramble or ST3Gal1 siRNA treated breast cancer cells were prepared for PNA lectin blot analysis after precipitation with agarose bound PNA. ST3Gal1 catalyzes the sialylation of galactosyl (β-1, 3) N-acetylgalactosamine, by adding sialic acid to Core 1 O-glycans. Since Peanut agglutinin (PNA) binds preferentially to Core 1 O-glycans (without the added sialic acid), ST3Gal1 knock down is expected to increase PNA binding to Core 1 O-glycans.
As expected, PNA-binding signals in breast cancer cells increased at about 72, 130 and 250 kDa molecular weight, after ST3Gal1 knock down (FIG. 1B). Using in-gel digestion and LTQ-FTD MASS spectrometry, CD55 was identified as one of the PNA-binding proteins with increased signal (by 2.6 folds) after ST3Gal1 knock down and the molecular weight of CD55 is slightly lower in ST3Gal1 silenced cells (FIG. 1C). However, the total CD55 protein levels remained similar (sc vs. si: 1.0 vs. 1.1) (FIG. 1D).

[6] = system: mCRPs (CD46, CD55, and CD59) and target antigens (HLA and SSEA4); experiment: FACS expression of membrane complement regulatory proteins and target antigens; format: cell-based; details: MDA-MB-231, four days after transfection
Text: as §1

[7] = system: C3 deposit on breast cancer cells; experiment: C3 deposition on cancer cell surface by flow cytometry with anti-C3 antibody; format: cell-based; details: human serum, non-lytic conditions
Protocol: An in vitro evaluation was performed to assess the decay-accelerating ability of ST3Gal1 silenced breast cancer cells with de-sialylated CD55, by measuring the deposition of C3 fragments on the cancer cell surface.
Breast cancer cells were incubated under non-lytic conditions with human serum and deposited C3 were detected by flow cytometric analysis using anti-C3 antibody. […] There is minimal C3 deposit in both scramble RNA (sc) and ST3Gal1 siRNA (si) transfected breast cancer cells in the absence of anti-HLA antibody (geometric mean fluorescence: sc, 31.5±0.2×10^3; si, 35.2±0.6×10^3).

Chain of UniProt P08174 (P08174 35-353 limits assumed): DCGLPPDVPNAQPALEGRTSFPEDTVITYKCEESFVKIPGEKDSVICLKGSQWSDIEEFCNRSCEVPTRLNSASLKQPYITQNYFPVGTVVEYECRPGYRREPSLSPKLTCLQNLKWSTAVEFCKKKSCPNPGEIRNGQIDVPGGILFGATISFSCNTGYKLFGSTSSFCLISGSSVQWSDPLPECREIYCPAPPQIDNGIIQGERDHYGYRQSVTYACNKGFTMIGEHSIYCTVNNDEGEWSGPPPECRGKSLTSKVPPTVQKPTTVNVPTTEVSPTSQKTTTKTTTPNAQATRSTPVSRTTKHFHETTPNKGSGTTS

Compound: CC/C(=C(\c1ccccc1)c1ccc(OCCN(C)C)cc1)c1ccccc1 [tamoxifen]
Cancer cell viability (MCF7 breast cancer cells): 76%

Compound: COc1cc2c(Nc3ccc(Br)cc3F)ncnc2cc1OCC1CCN(C)CC1 [vandetanib]
Cancer cell viability (MCF7 breast cancer cells): 37.5%

fold increase of signal after ST3Gal1 knock down (against scramble siRNA cells) [1]: 2.6 fold
Compound: Peanut agglutinin (PNA) (from UniProt P02872 24-259)

Compound: ST3Gal1 siRNA: ST3Gal1 siRNA with an antisense strand (SEQ ID NO:2) and a sense strand (SEQ ID NO:3) (sense CCGGUUCCUGCAAAGAUCAGAGUGA; antisense UCACUCUGAUCUUUGCAGGAACCGG; listed as RNA, chemistry not given here)
mean percentage of lysis (ADCC) (MDA-MB-231 cells): 41.5±2.4% | Cancer cell viability (MCF7 breast cancer cells): 65% | proliferation of prostate cancer cells compared to sc RNA [2]: significantly reduced | proliferation of neuroblastoma cells compared to sc RNA [3]: significantly reduced | expression of ST3Gal1 RNA, % of that of sc transfected breast cancer cells (ST3Gal1 mRNA; normalized to GAPDH mRNA): 28.5±8.2% | relative amount of monosialylated core 1 O-glycan of CD55 (m/z 895.462) (CD55 [4]): similar | relative amount of disialylated core 2 structure at m/z 864.426 (2+) on CD55 (CD55 [4]; FIG. 6B): significantly reduced | relative amount of monosialylated core 2 structure at m/z 683.839 (2+) on CD55 (CD55 [4]; FIG. 6B): increased | expression levels of CD46 or CD59 (CD46 and CD59): unaffected | increase of CD55 PNA-binding signal after ST3Gal1 knock down (CD55 [5]; FIG. 1C): 2.6 folds | total CD55 protein levels (sc = 1.0) (CD55 [5]; FIG. 1D): 1.1 | expression levels of mCRPs (CD46, CD55, CD59) and target antigens (HLA, SSEA4) [6]: no change | C3 deposit, geometric mean fluorescence ([7]; 10 μg/ml anti-HLA antibody): 89.5±5.5×10^3 | C3 deposit, geometric mean fluorescence ([7]; 25 μg/ml anti-HLA antibody): 164.8±0.8×10^3 | C3 deposit, geometric mean fluorescence ([7]; absence of anti-HLA antibody): 35.2±0.6×10^3

Compound: shRNA1-3: shRNA1-3 (SEQ ID NO:11) (CCGGGCTGGGAGATAATGTCAGCATCTCGAGATGCTGACATTATCTCCCAGCTTTTTG)
expression of ST3Gal1 RNA compared to sc RNA, siRNA-A or pVoid transfected cells (ST3Gal1 mRNA): reduced

Compound: shRNA1-4: shRNA 1-4 (SEQ ID NO:12) (CCGGGCGGGAGAAGAAGCCCAATAACTCGAGTTATTGGGCTTCTTCTCCCGCTTTTTG)
expression of ST3Gal1 RNA compared to sc RNA, siRNA-A or pVoid transfected cells (ST3Gal1 mRNA): reduced

Compound: siRNA-1: siRNA, antisense AUCUCAGGCCCAUAAGAAGACUCCC (SEQ ID NO: 4), sense GGGAGUCUUCUUAUGGGCCUGAGAU (SEQ ID NO: 5) (listed as RNA, chemistry not given here)
expression of ST3Gal1 RNA compared to sc RNA, siRNA-A or pVoid transfected cells (ST3Gal1 mRNA): reduced

Compound: siRNA-2: siRNA, antisense UCAUGCUGACAUUAUCUCCCAGCUC (SEQ ID NO: 6), sense GAGCUGGGAGAUAAUGUCAGCAUGA (SEQ ID NO: 7) (listed as RNA, chemistry not given here)
expression of ST3Gal1 RNA compared to sc RNA, siRNA-A or pVoid transfected cells (ST3Gal1 mRNA): reduced

Compound: siRNA-3: siRNA, antisense UUGAGAAGAUGACCGAGAGGAUGCC (SEQ ID NO: 8), sense GGCAUCCUCUCGGUCAUCUUCUCAA (SEQ ID NO: 9) (listed as RNA, chemistry not given here)
expression of ST3Gal1 RNA compared to sc RNA, siRNA-A or pVoid transfected cells (ST3Gal1 mRNA): reduced
